Test results taken from patent publication US10178875B2, “Methods of modifying or imparting taste using organic compounds” (Givaudan, S.A., priority 2013, dated 2019).

Tested on: panel of trained tasters
Experiment: Taste evaluation in water
Assay type: in vivo
Description: A one percent cut of each compound of Examples 1-13 was prepared first. The hydrochloride salts were cut directly into water, while the free base examples were cut into ethanol. Next, 100 ml of a 1 ppm, 10 ppm and 20 ppm solution were prepared. The 1 ppm standards were prepared by addition of 0.0126 ml (cut in ethanol) or 0.01 ml (cut in water) to an amber bottle followed by dilution to 100 g total sample weight using water. The 10 and 20 ppm solutions were prepared similarly, but using 0.126 ml ethanol/0.1 ml water or 0.252 ml ethanol/0.2 ml water of the 1% cuts respectively. Next, the samples were evaluated by a panel of trained tasters.

Structure (SMILES) | taste (1 ppm in water) | taste (10 ppm in water) | taste (20 ppm in water) | aroma (1 ppm in water) | aroma (10 ppm in water) | aroma (20 ppm in water)
Cc1cccc(SCCc2ccccn2)c1.Cl [Example 12, 2-(2-(M-TOLYLTHIO)ETHYL)PYRIDINE HYDROCHLORIDE] | weak: umami, astringent, very weak salty | moderate umami, weak: salty, astringent | moderate to strong umami, weak: salty, |  |  | 
Cc1ccccc1SCCc1ccccn1.Cl [Example 5, 2-(2-(O-TOLYLTHIO)ETHYL)PYRIDINE HYDROCHLORIDE] | weak bitter, astringent, very weak metallic | weak umami, very weak bitter | weak umami, very weak: bitter, astringent | green pepper | green pepper | green pepper
Oc1ccccc1SCCc1ccccn1 [Example 7, 2-((2-(PYRIDIN-2-YL)ETHYL)THIO)PHENOL] | very weak: umami, salty, weak bitter | weak to moderate umami, weak: bitter, metallic, | Weak to moderate umami, weak bitter, very | Green pepper | Green pepper | Green pepper
Cc1ccc(SCCc2ccccn2)cc1.Cl [Example 4, 2-(2-(P-TOLYLTHIO)ETHYL)PYRIDINE HYDROCHLORIDE] | very weak: umami, bitter, astringent | weak: umami, bitter, astringent, very weak | Weak: umami, bitter, metallic, sour, astringent |  | green | green
COc1cccc(SCCc2ccccn2)c1 [Example 8, 2-(2-((3-METHOXYPHENYL)THIO)ETHYL)PYRIDINE] | very weak metallic, weak astringent | weak: umami, astringent, very weak: bitter, | weak: umami, very weak: bitter, metallic | Green pepper, beany | Green pepper | Green pepper
Oc1ccc(SCCc2ccccn2)cc1 [Example 6, 4-((2-(PYRIDIN-2-YL)ETHYL)THIO)PHENOL] | very weak: umami, astringent | weak: umami, bitter, astringent, very weak | weak: umami, bitter, astringent, very weak | green | Green, fruity | Green, fruity
c1ccc(CSCCc2ccccn2)cc1 [Example 11, 2-(2-(BENZYLTHIO)ETHYL)PYRIDINE] | weak umami, very weak astringent | weak umami, very weak astringent | moderate to strong umami, very weak bitter, | phenolic | Phenolic, spicy | Phenolic, spicy
Cl.c1ccc(SCCc2ccccn2)cc1 [Example 2, 2-(2-(PHENYLTHIO)ETHYL)PYRIDINE HYDROCHLORIDE] | weak umami, very weak astringent | moderate umami, very weak: salty, bitter, | moderate umami, weak: salty, bitter, astringent | green | green | green
